Data reported in ChEMBL document CHEMBL3120068, “Identification of diverse natural products as falcipain-2 inhibitors through structure-based virtual screening” (Bioorg Med Chem Lett, 2014).

How the values were obtained:
[1] = system: Plasmodium falciparum; test: Antiplasmodial activity against chloroquine-resistant blood stage Plasmodium falciparum Dd2 after 72 hrs by SYBR Green I-based fluorescence assay; assay type: functional, organism-based; details: Dd2, 72 h
[2] = system: Plasmodium falciparum; test: Antiplasmodial activity against chloroquine-sensitive blood stage Plasmodium falciparum 3D7 after 72 hrs by SYBR Green I-based fluorescence assay; assay type: functional, organism-based; details: 3D7, 72 h
[3] = Inhibition of recombinant Plasmodium falciparum falcipain 2 after 30 mins by fluorescence assay

Row | Structure (SMILES) | IC50 [1] [µM] | IC50 [2] [µM] | IC50 [3] [µM]
1 | O=C1c2c(O)cc(O)cc2O[C@@]2(c3ccc(O)cc3)Oc3cc(O)c4c(c3[C@]12O)O[C@H](c1ccc(O)cc1)CC4 | 66.7 | 60.6 | 5.23
2 | C[C@@H]1CC[C@H]2[C@@H](C)C(=O)O[C@@H]3O[C@@]4(C)CC[C@@H]1[C@]32OO4 [ARTEMISININ] | 0.049 | 0.04 | –
3 | C[C@@H]1O[C@@H](O[C@H]2[C@H](O)[C@@H](COC(=O)/C=C/c3ccc(O)c(O)c3)O[C@H]3OC[C@H](c4ccc(O)c(O)c4)O[C@@H]32)[C@H](O)[C@H](O)[C@H]1O [ISOCRENATOSIDE] | 93.1 | > 50 | 53.1
4 | O=c1c(O[C@@H]2O[C@H](CO)[C@@H](O)[C@H](O)[C@H]2O)c(-c2ccc(O)c(O)c2)oc2cc(O)cc(O)c12 [ISOQUERCETIN] | 4.05 | 5.54 | 15.7
5 | COc1cc(O[C@@H]2O[C@H](CO[C@@H]3OC[C@@H](O)[C@H](O)[C@H]3O)[C@@H](O)[C@H](O)[C@H]2O)c2c(=O)cc(-c3ccc(O)cc3)oc2c1 | > 500 | > 250 | 17.1
6 | CC(C)C[C@H](NC(=O)[C@H]1O[C@@H]1C(=O)O)C(=O)NCCCCN=C(N)N [E-64] | – | – | 0.017
7 | CCCCOC(=O)[C@H]1c2c(/C=C/C(=O)O[C@H](Cc3ccc(O)c(O)c3)C(=O)O)ccc(O)c2O[C@@H]1c1ccc(O)c(O)c1 | – | – | 3.18
8 | CCOC(=O)c1c(O)cc(O)c2c1OC(c1ccc(O)cc1)CC2 (configuration not stated) | 86.8 | 60.3 | 9.12
9 | COc1cc(-c2oc3cc(O)cc(O)c3c(=O)c2O[C@@H]2O[C@H](COC(C)=O)[C@@H](O)[C@H](O)[C@H]2O)cc(OC)c1O | – | – | 68.2
10 | O=C1c2c(O)cc(O)cc2O[C@H](c2cc(O)c(O)c(O)c2)[C@@H]1O | > 50 | 75.5 | 44.8
11 | O=C1c2c(O)cc(O)cc2O[C@H](c2ccc(O)c(O)c2)[C@H]1O [TAXIFOLIN] | 55 | 48.2 | 56.9
12 | COC(=O)[C@@H](Cc1ccc(O)c(O)c1)OC(=O)/C=C/c1ccc(O)c2c1[C@H](C(=O)OC)[C@@H](c1ccc(O)c(O)c1)O2 [DIMETHYL LITHOSPERMATE] | – | – | 3.77
